Experimental data as given in ChEMBL document CHEMBL1129564, “Tyrosine kinase inhibitors. 10. Isomeric 4-[(3-bromophenyl)amino]pyrido[d]-pyrimidines are potent ATP binding site inhibitors of the tyrosine kinase function of the epidermal growth factor receptor” (J Med Chem, 1996).

What follows are molecules tested against T1, Epidermal growth factor receptor (Homo sapiens, UniProt P00533) (assay: biochemical).
T1 sequence (P00533 whole entry): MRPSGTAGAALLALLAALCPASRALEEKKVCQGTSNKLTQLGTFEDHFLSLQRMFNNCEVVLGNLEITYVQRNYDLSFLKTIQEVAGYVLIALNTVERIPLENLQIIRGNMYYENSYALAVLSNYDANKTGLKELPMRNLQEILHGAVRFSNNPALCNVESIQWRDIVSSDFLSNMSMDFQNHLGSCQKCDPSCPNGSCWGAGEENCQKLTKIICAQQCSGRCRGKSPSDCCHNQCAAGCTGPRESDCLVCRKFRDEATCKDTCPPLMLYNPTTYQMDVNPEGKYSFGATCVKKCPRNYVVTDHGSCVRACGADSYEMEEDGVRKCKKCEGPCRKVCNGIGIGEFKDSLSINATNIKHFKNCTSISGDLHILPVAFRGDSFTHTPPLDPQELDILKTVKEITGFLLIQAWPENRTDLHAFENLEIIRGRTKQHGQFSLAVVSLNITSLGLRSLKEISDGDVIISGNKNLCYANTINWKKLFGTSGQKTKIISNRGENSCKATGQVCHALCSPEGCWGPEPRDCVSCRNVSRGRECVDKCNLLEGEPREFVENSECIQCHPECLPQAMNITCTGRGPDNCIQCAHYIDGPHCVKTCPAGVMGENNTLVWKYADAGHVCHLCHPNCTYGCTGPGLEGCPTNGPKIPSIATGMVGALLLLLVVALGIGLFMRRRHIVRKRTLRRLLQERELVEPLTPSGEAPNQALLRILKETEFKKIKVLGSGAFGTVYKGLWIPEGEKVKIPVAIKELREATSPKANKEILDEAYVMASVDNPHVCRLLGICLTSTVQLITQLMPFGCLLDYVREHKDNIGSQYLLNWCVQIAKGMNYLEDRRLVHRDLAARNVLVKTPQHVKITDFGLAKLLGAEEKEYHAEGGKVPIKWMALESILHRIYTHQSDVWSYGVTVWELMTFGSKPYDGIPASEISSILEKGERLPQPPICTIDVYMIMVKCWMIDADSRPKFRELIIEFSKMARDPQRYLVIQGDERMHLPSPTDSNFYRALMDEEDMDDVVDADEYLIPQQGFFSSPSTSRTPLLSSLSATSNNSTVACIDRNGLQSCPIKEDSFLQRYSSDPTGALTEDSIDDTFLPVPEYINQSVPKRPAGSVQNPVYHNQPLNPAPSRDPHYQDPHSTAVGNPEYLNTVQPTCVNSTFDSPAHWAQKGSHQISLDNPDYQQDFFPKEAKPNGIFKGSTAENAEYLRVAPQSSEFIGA
Description: Inhibitory potency against isolated epidermal growth factor receptor (EGFR) from human A431 carcinoma cells

Compared with `CNc1cc2c(Nc3ccccc3)ncnc2cn1`, `Nc1cc2c(Nc3cccc(Br)c3)ncnc2cn1` is 69-fold lower in IC50: 9 nM for the first, 0.13 nM for the second. The second is the more potent here.

First: Fc1ccc2c(Nc3cccc(Br)c3)ncnc2n1
Second: CN(C)c1ccc2c(Nc3cccc(Br)c3)ncnc2n1
The IC50 of the first is 2.1-fold higher: 684 nM for the first, 324 nM for the second.

First: CN(C)c1ccc2ncncc2c1
Second: CN(C)c1ccc2cncnc2c1
The IC50 of the first is 11-fold higher: 120 nM for the first, 11 nM for the second. The second is the more potent here.

Compared with `Brc1cccc(Nc2ncnc3ncccc23)c1`, `Brc1cccc(Nc2ncnc3cccnc23)c1` is 20-fold lower in IC50: 688 nM for the first, 34 nM for the second.

Compared with `COc1ccc2ncnc(Nc3cccc(Br)c3)c2n1`, `Fc1ccc2ncnc(Nc3cccc(Br)c3)c2n1` is 10-fold higher in IC50: 4.3 nM for the first, 44 nM for the second.

Going from `COc1ccc2ncncc2c1` to `COc1ccc2cncnc2c1`, the IC50 falls from 30 nM to 10 nM (3-fold). The second is the more potent here.

Compared with `CNc1ccc2cncnc2c1`, `CNc1ccc2ncncc2c1` is 1.8-fold higher in IC50: 4 nM for the first, 7 nM for the second.

Going from `c1ccc(CNc2ncnc3cccnc23)cc1` to `c1ccc(CNc2ncnc3ncccc23)cc1`, the IC50 rises from 603 nM to greater than 10000 nM. The first is the more potent here.

`Brc1cccc(Nc2ncnc3cnccc23)c1` and `Brc1cccc(Nc2ncnc3ccncc23)c1` are within 1.5-fold of each other in IC50: 51 nM for the first, 35 nM for the second.

`c1ccc(CNc2ncnc3ccncc23)cc1` and `c1ccc(CNc2ncnc3cnccc23)cc1` are within 1.5-fold of each other in IC50: 1460 nM for the first, 2030 nM for the second.

Going from `CNC1=CC2N=CN(C)/C(=N\c3cccc(Br)c3)C2C=N1` (configuration not stated) to `Clc1ccc2ncnc(Nc3cccc(Br)c3)c2n1`, the IC50 rises from 3.1 nM to 18 nM (5.8-fold).

Going from `Nc1ccc2cncnc2c1` to `Nc1ccc2ncncc2c1`, the IC50 rises from 0.1 nM to 0.79 nM (7.9-fold). The first is the more potent here.

Going from `COc1ccc(CNc2cc3c(Nc4cccc(Br)c4)ncnc3cn2)cc1` to `c1ccc2ncncc2c1` [QUINAZOLINE], the IC50 rises from 2.3 nM to 27 nM (12-fold). The first is the more potent here.

The molecules below were run against T1, Epidermal growth factor receptor (assay: Inhibition of Epidermal growth factor receptor autophosphorylation in A431 human epidermoid carcinoma cells).

`Nc1cc2c(Nc3cccc(Br)c3)ncnc2cn1` and `CNc1cc2c(Nc3cccc(Br)c3)ncnc2cn1` are within 1.5-fold of each other in IC50: 16 nM for the first, 15 nM for the second.

Compared with `CN(C)c1ccc2c(Nc3cccc(Br)c3)ncnc2n1`, `CN(C)c1cc2ncnc(Nc3cccc(Br)c3)c2cn1` is 160-fold lower in IC50: 2300 nM for the first, 14 nM for the second.

Compared with `CNc1cc2ncnc(Nc3cccc(Br)c3)c2cn1`, `Nc1cc2ncnc(NCc3ccccc3)c2cn1` is 130-fold higher in IC50: 16 nM for the first, 2080 nM for the second. The first is the more potent here.
